Legend:
HepG2 = assay: MTT anti-proliferative assay against HepG2; assay type: cell-based; conditions: Homo sapiens, HepG2, read-out: HepG2 IC50
VEGFR-2 = VEGFR-2 (Homo sapiens, UniProt P35968); assay: biochemical
MCF-7 = assay: MTT anti-proliferative assay against MCF-7; assay type: cell-based; conditions: Homo sapiens, MCF7, read-out: MCF-7 IC50
MCF-7 cells [1] = assay: Cell cycle analysis by flow cytometry; assay type: cell-based, Human
MCF-7 cells [2] = assay: Annexin-V/propidium iodide apoptosis analysis; assay type: cell-based, Human
Vero cells = assay: In vitro safety assay on normal Vero cells; assay type: cell-based
MCF-7 cells [3] = assay: Wound healing; assay type: cell-based, Human

Chain of VEGFR-2 (P35968 20-1356): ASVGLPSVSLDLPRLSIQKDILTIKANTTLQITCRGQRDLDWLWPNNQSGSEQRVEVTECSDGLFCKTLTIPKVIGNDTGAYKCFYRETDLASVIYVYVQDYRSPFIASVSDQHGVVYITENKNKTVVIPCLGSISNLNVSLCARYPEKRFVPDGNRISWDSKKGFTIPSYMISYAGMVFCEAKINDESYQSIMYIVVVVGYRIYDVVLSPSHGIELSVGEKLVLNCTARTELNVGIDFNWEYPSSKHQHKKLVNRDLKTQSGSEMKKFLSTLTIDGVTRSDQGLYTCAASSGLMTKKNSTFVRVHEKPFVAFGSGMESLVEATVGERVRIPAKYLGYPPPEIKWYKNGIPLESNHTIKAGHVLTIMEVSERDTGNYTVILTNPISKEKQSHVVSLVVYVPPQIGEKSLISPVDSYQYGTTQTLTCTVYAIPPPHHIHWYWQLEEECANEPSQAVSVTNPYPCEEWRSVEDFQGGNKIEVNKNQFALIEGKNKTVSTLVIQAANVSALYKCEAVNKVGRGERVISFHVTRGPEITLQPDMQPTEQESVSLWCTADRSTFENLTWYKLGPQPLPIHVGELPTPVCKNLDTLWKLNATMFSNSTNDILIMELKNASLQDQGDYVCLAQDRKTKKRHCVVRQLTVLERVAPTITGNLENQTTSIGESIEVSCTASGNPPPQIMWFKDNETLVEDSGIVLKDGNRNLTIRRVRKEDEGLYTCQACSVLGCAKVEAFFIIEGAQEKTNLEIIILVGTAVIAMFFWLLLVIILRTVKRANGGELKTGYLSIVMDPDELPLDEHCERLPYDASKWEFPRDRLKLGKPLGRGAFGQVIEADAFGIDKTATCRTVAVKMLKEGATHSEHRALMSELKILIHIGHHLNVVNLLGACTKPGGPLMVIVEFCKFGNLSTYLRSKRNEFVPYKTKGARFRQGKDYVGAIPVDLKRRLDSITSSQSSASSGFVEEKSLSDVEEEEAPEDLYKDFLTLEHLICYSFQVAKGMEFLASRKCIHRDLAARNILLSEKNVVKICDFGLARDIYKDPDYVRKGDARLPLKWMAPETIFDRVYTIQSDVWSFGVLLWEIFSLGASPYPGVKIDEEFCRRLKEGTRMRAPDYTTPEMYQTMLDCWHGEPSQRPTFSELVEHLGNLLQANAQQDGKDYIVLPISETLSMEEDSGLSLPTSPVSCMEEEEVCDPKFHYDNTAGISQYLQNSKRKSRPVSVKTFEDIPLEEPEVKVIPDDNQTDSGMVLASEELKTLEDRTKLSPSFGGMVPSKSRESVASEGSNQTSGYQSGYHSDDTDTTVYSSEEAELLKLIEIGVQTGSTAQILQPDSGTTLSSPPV

`O=C(CN1C(=O)SC(=Cc2ccccc2Cl)C1=O)Nc1ccc(C(=O)NNC(=O)c2cccc(Cl)c2)cc1` [Compound 19, N-(4-(2-(3-chlorobenzoyl)hydrazine-1-carbonyl)phenyl)-2-(5-(2-chlorobenzylidene)-2,4dioxothiazolidin-3-yl)acetamide] was tested, and the IC50 (HepG2) was 3060 ± 20 nM, the IC50 (VEGFR-2) was 323 ± 14 nM and the IC50 (MCF-7) was 2290 ± 190 nM.

`O=C(CN1C(=O)SC(=Cc2ccccc2Cl)C1=O)Nc1ccc(C(=O)NNc2ccccc2)cc1` [Compound 18, 2-(5-(2-Chlorobenzylidene)-2,4-dioxothiazolidin-3-yl)-N-(4-(2-phenylhydrazine-1-carbonyl)phenyl)acetamide] showed an IC50 (HepG2) of 4700 ± 100 nM, an IC50 (VEGFR-2) of 2660 ± 112 nM and an IC50 (MCF-7) of 1760 ± 20 nM.

In the case of `O=C(CN1C(=O)SC(=Cc2ccc(Cl)cc2Cl)C1=O)Nc1ccc(C(=O)Nc2cccc(Cl)c2)cc1` [Compound 21, N-(3-chlorophenyl)-4-(2-(5-(2,4-dichlorobenzylidene)-2,4-dioxothiazolidin-3-yl)acetamido)benzamide], the IC50 (HepG2) is reported as 840 ± 10 nM, the IC50 (VEGFR-2) is reported as 1660 ± 70 nM and the IC50 (MCF-7) is reported as 680 ± 10 nM.

`O=C(CN1C(=O)SC(=Cc2ccc(Cl)cc2Cl)C1=O)Nc1ccc(C(=O)NNC(=O)c2cccc(Cl)c2)cc1` [Compound 23, N-(4-(2-(3-chlorobenzoyl)hydrazine-1-carbonyl)phenyl)-2-(5-(2,4-dichlorobenzylidene)-2,4-dioxothiazolidin-3-yl)acetamide] was tested, and the IC50 (HepG2) was 1180 ± 10 nM, the IC50 (VEGFR-2) was 328 ± 14 nM and the IC50 (MCF-7) was 950 ± 10 nM.

`O=C(CN1C(=O)SC(=Cc2ccc(Cl)cc2Cl)C1=O)Nc1ccc(C(=O)NNC(=O)c2ccccc2)cc1` [Compound 22, N-(4-(2-benzoylhydrazine-1-carbonyl)phenyl)-2-(5-(2,4-dichlorobenzylidene)-2,4-dioxothiazolidin-3-yl)acetamide] was tested, and the “Cell cycle arrest phase” value (MCF-7 cells [1]; MCF-7, 1.21 μM) was “S phase”, the “Cell cycle distribution G2/M” value (MCF-7 cells [1]; MCF-7, 1.21 μM for 72 h, control 16.35) was 13.77% and the “Cell cycle distribution S” value (MCF-7 cells [1]; MCF-7, 1.21 μM for 72 h, control 24.61) was 33.84%. For the same molecule, the “Cell cycle distribution G0-G1” value (MCF-7 cells [1]; MCF-7, 1.21 μM for 72 h, control 59.04) was 52.39%, the IC50 (HepG2) was 2040 ± 60 nM and the “Increase of early apoptosis compared to untreated cells” value (MCF-7 cells [2]; MCF-7, 1.21 μM) was “about 76 times”. For the same molecule, the “Increase of late apoptosis compared to untreated cells” value (MCF-7 cells [2]; MCF-7, 1.21 μM) was “about 90 fold”, the “Apoptosis Late (Right Top)” value (MCF-7 cells [2]; MCF-7, 1.21 μM, 72 h, control 0.15) was 13.53% and the “Apoptosis Early (Right Bottom)” value (MCF-7 cells [2]; MCF-7, 1.21 μM, 72 h, control 0.29) was 22.15%. The “Necrosis (Left Top)” value (MCF-7 cells [2]; MCF-7, 72 h treatment, control 2.22) was 5.34, the IC50 (VEGFR-2) was 79 ± 3 nM and the IC50 (MCF-7) was 1210 ± 40 nM. For the same molecule, the “Selectivity index HepG2” value (Vero cells; IC50 Vero divided by IC50 HepG2) was 1.95, the “Selectivity index MCF-7” value (Vero cells; IC50 Vero divided by IC50 MCF-7) was 3.28 and the RM (MCF-7 cells [3]; MCF-7, 48 h, untreated 16.58) was 6.16 um. The Wound closure (MCF-7 cells [3]; MCF-7, 48 h, untreated 81.62) was 30.20 % um^2, the Area difference (MCF-7 cells [3]; MCF-7, 48 h, untreated 795.83) was 295.83% and the “Reduction in scratch width” value (MCF-7 cells [3]; MCF-7, after 48 h, untreated 81.62 %) was 30.20%. For the same molecule, the “Scratch width at 48 h” value (MCF-7 cells [3]; MCF-7, untreated 178.24) was 682.93, the “Scratch area at 48 h” value (MCF-7 cells [3]; MCF-7, untreated 179.17) was 683.83 and the “Scratch width at 24 h” value (MCF-7 cells [3]; MCF-7, untreated 644.43) was 904.16. The “Scratch area at 24 h” value (MCF-7 cells [3]; MCF-7, untreated 645.50) was 905.17, the “Scratch width at 0 h” value (MCF-7 cells [3]; MCF-7, untreated 974.11) was 978.78 and the “Scratch area at 0 h” value (MCF-7 cells [3]; MCF-7, untreated 975.00) was 979.67.

`O=C(CN1C(=O)SC(=Cc2ccccc2Cl)C1=O)Nc1ccc(C(=O)NNC(=O)c2ccccc2O)cc1` [Compound 20, 2-(5-(2-Chlorobenzylidene)-2,4-dioxothiazolidin-3-yl)-N-(4-(2-(2-hydroxybenzoyl) hydrazine-1-carbonyl)phenyl)acetamide] gave an IC50 (HepG2) of 1140 ± 30 nM, an IC50 (VEGFR-2) of 210 ± 9 nM and an IC50 (MCF-7) of 660 ± 30 nM.

`O=C(CN1C(=O)SC(=Cc2ccc(Cl)cc2Cl)C1=O)Nc1ccc(C(=O)NNC(=O)c2ccccc2O)cc1` [Compound 24, 2-(5-(2,4-Dichlorobenzylidene)-2,4-dioxothiazolidin-3-yl)-N-(4-(2-(2-hydroxybenzoyl) hydrazine-1-carbonyl)phenyl)acetamide] was tested, and the IC50 (HepG2) was 600 ± 20 nM, the IC50 (VEGFR-2) was 203 ± 9 nM and the IC50 (MCF-7) was 650 ± 10 nM.
